Test results published in patent US20150216955A1, “IMMUNOMODULATORY AGENT AND USES THEREFOR” (The University of Queensland, priority 2012, published 2015).
Where a SMILES comes first, the peptide text is derived from it. Where no end group is shown, it is not given here. [ ]: non-standard residue; d: D form. Cit = NC(=O)NCCC[C@H](N)C(=O)O

How the values were obtained:
[1] = tested on: antigen-presenting cells (APC); assay: Pre-incubation of APC with NF-kB, mTOR or Syk inhibitors; T cell cytokine production in response to citrullinated aggrecan peptide; assay type: cell-based, human; details: APC pre-incubated 1 h with inhibitor, then LPS; 5 days with CD4+ T cells and 3 or 30 μg/mL Aggrecan peptide 84-103 cit 93
Description: Peripheral blood mononuclear cells (PBMC) were extracted from an RA patient with disease duration 18 years, positive anti-CCP and HLA-DRB1*0401 shared epitope. Autologous CD4+ T cells were isolated using immunomagnetic beads. The non-T cell fraction consists of antigen-presenting cells (APC), including dendritic cells, monocytes and B cells; it was treated with Mitomycin C to prevent proliferation. The APC were pre-incubated for 1 h without or with 3 uM BAY7011-82, 20 μg/mL Curcumin (both inhibit NF-kB), 10 ng/mL Rapamycin (inhibits mTOR) or […] Piceatannol (inhibits syk), then incubated with 100 ng/mL LPS for 1 h. The APC were washed 3 times then incubated for 5 days with CD4+ T cells in the presence of 0 μg/mL, 3 μg/mL or 30 μg/mL Aggrecan peptide 84-103 cit 93. Cytokines were analysed in culture supernatants by cytokine bead array.

[2] = Solubility of peptide in aqueous medium; assay type: physicochemical
PBMC = assay: Cytokine secretion in day 5 supernatants by Cytometric Bead Array (CBA) after peptide stimulation; assay type: cell-based, human; details: for cytokine responses to the epitope: current studies, fibrinogen: long-standing RA patients; for number of RA patients with positive IL-6 response to this epitope only: of 17 RA patients, threshold mean + 2 SD above native peptide response
CD4+ T cells = assay: Flow cytometry and intracellular cytokine staining after peptide stimulation; assay type: cell-based, human
Description: FIG. 6 is a graphical representation showing cytokine secretion by CD4^+ T cell subsets. PBMC from HLA-DR SE^+ RA patients and healthy controls were incubated with 0 or 30 μg/ml citrullinated fibrinogen or citrullinated aggrecan, stained with mAb directed against CD4, CD28, IFN-γ and IL-6 (A), or CD4, CD45RO, IL-6 and IFN-γ (E) then analyzed by flow cytometry. B: The gating strategy is outlined. C: Fluorescence minus one (FMO) plot showing background staining for intracellular cytokine staining, gated on CD4^+ T cells. D: IL-6 staining of gated CD4^− non-T cells. The proportions in (E) of IL-6^+CD4^+CD45RO^+ T cells were 2.2%, 5.3% and 7.1%, and of IL-6^+CD4^+CD45RO^− T cells were 0.8%, 2.1% and 4% in response to incubation with no peptide, citrullinated fibrinogen and citrullinated aggrecan respectively. Two individual RA patients and 1 healthy control are shown. Data are representative of 2 healthy donors and 5 RA patients.
IL-6 is an important cytokine in RA, which could be produced upon stimulation of PBMC either by T cells or antigen presenting cells. To determine the origin of the cytokines secreted into supernatants of PBMC stimulated by citrullinated peptides, RA PBMC were incubated with citrullinated or native peptides for 5 days, with addition of Brefeldin-A for the last 18 hours, prior to intracellular cytokine staining along with analysis of cell surface markers. CD3^+CD4^+ T cells produced more intra-cellular IFN-γ and IL-6 when incubated with citrullinated aggrecan or fibrinogen relative to incubation in medium alone (FIG. 6A, B). […] In healthy controls, CD28^− cells comprised only a small proportion of the CD4^+ T cells, and cytokine-secreting cells were exclusively CD4^+CD28^+. CD28^− cells were more abundant among CD4^+ PB T cells in some, but not all, RA patients. Where CD4^+CD28^− T cells were present, IL-6 and IFN-γ were secreted by both CD28^− and CD28^+CD4^+ T cells in response to citrullinated peptides. […] IFN-γ^+CD4^+ and IL-6^+CD4^+ T cells included both CD45RO^+ and CD45RO^− cells (FIG. 6E).
PBMC from SE^+ RA patients or healthy controls were incubated with or without peptides at concentrations of 3 and 30 μg/mL for 5 days, with Brefeldin A (Sigma Aldrich) added for the final 18 hours. Cells were stained for CD3-FITC, CD4-APC/Cy7, CD28-FITC, CXCR5-PerCP/Cy5.5 and CD45RO-PerCP/Cy5.5 (Biolegend), followed by permeabilization and staining for intracellular IL-6-APC and IFN-γ-APC (Biolegend). Data were collected on the Gallios flow cytometer and analysed using Kaluza software (Beckman Coulter).

PBMC or SFMC = assay type: cell-based, human
[3] = RA PBMC, 5 days, Brefeldin-A last 18 hours

Cc1ccc(S(=O)(=O)/C=C/C#N)cc1 [Bay11-7082, E3((4-methylphenyl)-sulfonyl)-2-propenenitrile]
capacity of APC presenting cit-peptide to induce T cell IL-6 production [1]: partially suppressed

CC(C)C[C@H](NC(=O)[C@H](CC(C)C)NC(=O)[C@@H](NC(=O)[C@@H](N)C(C)C)C(C)C)C(=O)N[C@H](C(=O)N[C@@H](C)C(=O)N[C@H](C(=O)N[C@@H](CCC(=O)O)C(=O)NCC(=O)N[C@@H](CCCNC(N)=O)C(=O)N[C@H](C(=O)N[C@@H](CCCNC(=N)N)C(=O)N[C@H](C(=O)N[C@@H](CC(N)=O)C(=O)N[C@@H](CO)C(=O)N[C@@H](C)C(=O)N[C@@H](Cc1ccc(O)cc1)C(=O)N[C@@H](CCC(N)=O)C(=O)N[C@@H](CC(=O)O)C(=O)N[C@@H](CCCCN)C(=O)O)C(C)C)C(C)C)[C@@H](C)O)C(C)C [citrullinated aggrecan, VVLLVATEGCitVRVNSAYQDK] (HELM PEPTIDE1{V.V.L.L.V.A.T.E.G.[Cit].V.R.V.N.S.A.Y.Q.D.K}$$$$V2.0; N-terminus and C-terminus assumed)
solubility in aqueous medium [2]: relatively insoluble in aqueous medium

QDFIN[Cit]INKLKNS [citrullinated fibrinogen]
healthy controls whose PBMC dose-dependently secreted IL-6 (PBMC; 6 SE+ healthy controls): 3/6 | cytokine responses to the epitope (PBMC): robust cytokine production | number of RA patients with positive IL-6 response to this epitope only (PBMC): 0 | proportion of IL-6+CD4+CD45RO- T cells (CD4+ T cells; 30 μg/ml peptide, no peptide 0.8%): 2.1% | proportion of IL-6+CD4+CD45RO+ T cells (CD4+ T cells; 30 μg/ml peptide, no peptide 2.2%): 5.3% | intra-cellular IFN-γ in CD3+CD4+ T cells relative to medium alone (CD4+ T cells; [3]): more | intra-cellular IL-6 in CD3+CD4+ T cells relative to medium alone (CD4+ T cells; [3]): more

QYM[Cit]ADQAAGGLR [citrullinated collagen type II]
number of RA patients with positive IL-6 response to this epitope only (PBMC): 0

SAVRA[Cit]SSVPGVR [citrullinated vimentin 66-78]
cytokine responses to the epitope (PBMC): much weaker cytokine responses

tetanus toxoid
Proliferative responses to tetanus toxoid, RA compared with healthy control PBMC (PBMC or SFMC): significantly lower
